From patent publication US10829453B2, “Antagonists of the kappa opioid receptor” (University of Kansas, priority 2014, dated 2020)
Counter-ions that a name gives are not always drawn.

How the values were obtained:
hKOR = molecular target: T1, hKOR (Homo sapiens, UniProt P41145); assay: βArrestin2 recruitment (DiscoveRx PathHunter) assay; assay type: cell-based; conditions: for β arrestin 2 Inhibition (% U69,593 Stimulation) 1 μm: compound at 1 μm; for β arrestin 2 Inhibition (% U69,593 Stimulation) 1 μm / β arrestin 2 Inhibition (% U69,593 Stimulation) 10 Nm / β arrestin 2 Inhibition (% U69,593 Stimulation) 100 Nm: set concentration of U69,593; for β arrestin 2 Inhibition (% U69,593 Stimulation) 10 Nm: compound at 10 Nm; for β arrestin 2 Inhibition (% U69,593 Stimulation) 100 Nm: compound at 100 Nm; for IC50: read-out: IC50 (nM) ± S.E.M. βarr2
T1 construct: host or cells: U2OS (PathHunter U2OS-hKOR-βarrestin2-DX), purchased engineered cell line
Protocol: (§1) Chinese hamster ovary (CHO) cells were virally transfected to express HA-tagged recombinant human kappa opioid receptors (CHO-hKOR cell line) and maintained in DMEM/F-12 media (Invitrogen) supplemented with 10% fetal bovine serum, 1% penicillin/streptomycin, and 500 μg/ml geneticin as described in Schmid, C. L.; Streicher, J. M.; Groer, C. E.; Munro, T. A.; Zhou, L.; Bohn, L. M. Functional selectivity of 6′-guanidinonaltrindole (6′-GNTI) at kappa opioid receptors in striatal neurons. […] A DiscoveRx PathHunter™ U2OS cell line expressing βarrestin2 and hKOR (U2OS-hKOR-βarrestin2-DX) was purchased from DiscoveRx Corporation (Fremont, Calif.) and maintained MEM with 10% fetal bovine serum, 1% penicillin/streptomycin, 500 μg/ml geneticin and 250 μg/ml hygromycin B. All cells were grown at 37° C. (5% CO2 and 95% relative humidity).
Briefly, 5,000 cells/well were plated overnight in Opti-MEM containing 1% fetal bovine serum, 1% penicillin/streptomycin. Cells were pretreated with antagonist for 15 min at 37° C. followed by the addition of 1 μM U69,593 and a 90 minute incubation at 37° C. PathHunter™ detection reagent was added and cells incubated at room temperature for 60 minutes. Chemiluminescence was detected using a SpectraMax® M5e Multimode Plate Reader (Molecular Devices). βarrestin2 recruitment assays were also performed using an imaging platform (Cellomics) to visulalize translocation of a fluorescent protein tagged βarrestin2 to the membrane of KOR expressing U2OS cells.
(§2) All compounds were run in parallel assays in 2-4 replicates per individual experiment. All studies were performed n≥3 independent experiments in multiple replicates. For determination of antagonist inhibition, each individual experiment was normalized to the percentage of maximal U69,593 stimulation. The efficacy and potency values were obtained from the averages of the nonlinear regression analysis performed on each individual curve and are reported as the mean±S.E.M.

[1] = molecular target: T2, human kappa opioid receptors (Homo sapiens, UniProt P41145); assay: In-cell western ERK1/2 phosphorylation, inhibition of U69,593 induced ERK phosphorylation; assay type: cell-based; conditions: hKOR-CHO cells, 100 nM U69,593, n ≥ 3; for IC50: read-out: IC50 (nM) ± S.E.M. ERK
T2 construct: HA; expressed in transfected cells; host or cells: Chinese hamster ovary (CHO) cells, virally transfected
Protocol: as §1
Briefly, hKOR-CHO cells were plated in 384-well plate at 15,000 cells per well and incubated at 37° C. overnight. After an hour serum starve, cells were treated with compound followed by the addition of 100 nM U69,593 and a 10 minute incubation at 37° C. Cells were fixed, permeabilized, blocked, and stained with primary antibodies for phosphorylated ERK1/2 and total-ERK1/2 (1:300 and 1:400, respectively) at 4° C. overnight. Cells then incubated with Li-Cor secondary antibodies (anti-rabbit IRDye800CW, 1:500; anti-mouse IRDye680LT, 1:1500) and imaged with the Odyssey Infrared Imager (Li-Cor Biosciences, Lincoln, Nebr.) at 700 and 800 nm.
as §2

[2] = molecular target: T2, human kappa opioid receptors; assay: [35S]GTPγS binding (G protein coupling) assay, antagonism of U69,593; assay type: biochemical; conditions: CHO-hKOR membranes, 100 nM U69,593, n ≥ 3; for IC50: read-out: IC50 (nM) ± S.E.M. [35S]GTPγS
Protocol: as §1
Briefly, cells were serum starved for 1 hour and membranes were prepared. Each reaction was performed at room temperature and contained 15 μg of membrane protein, 40 μM GDP, ˜0.1 nM [^35S]GTPγS and increasing concentrations of compounds in assay buffer (50 mM Tris-HCl, pH 7.4, 100 mM NaCl, 5 mM MgCl2, 1 mM EDTA). Directly after the addition of test compounds, 100 nM U69,593 was added to yield a total volume of 200 μL. After 1 hour, reactions were quenched by rapid filtration through GF/B filters and radioactivity was counted with a TopCount NXT high throughput screening microplate scintillation and luminescence counter (PerkinElmer Life Sciences).
as §2

C57BL/6 mice = assay: Locomotor activity in open field, alone and against U50,488; assay type: in vivo
[3] = Concentrations in plasma and brain tissue of mice after a single IP dose; conditions: single 10 mg/kg IP
[4] = mouse brain, single administration; cited from earlier work
[5] = U2OS-hKOR-βarrestin2-DX cells, 1 μM U69,593, n ≥ 3

T1 sequence (P41145 whole entry): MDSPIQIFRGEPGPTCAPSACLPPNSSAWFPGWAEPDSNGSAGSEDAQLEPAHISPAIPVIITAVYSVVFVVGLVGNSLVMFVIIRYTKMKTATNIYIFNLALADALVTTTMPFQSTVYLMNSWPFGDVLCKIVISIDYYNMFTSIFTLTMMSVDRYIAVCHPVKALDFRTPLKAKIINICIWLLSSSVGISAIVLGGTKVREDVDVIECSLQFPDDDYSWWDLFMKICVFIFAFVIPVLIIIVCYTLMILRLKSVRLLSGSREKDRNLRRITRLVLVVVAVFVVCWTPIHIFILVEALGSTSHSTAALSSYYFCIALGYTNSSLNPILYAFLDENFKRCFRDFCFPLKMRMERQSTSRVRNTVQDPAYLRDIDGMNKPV
T2 sequence (P41145 whole entry): as above

| SMILES | β arrestin 2 Inhibition (% U69,593 Stimulation) 1 μm (hKOR) | β arrestin 2 Inhibition (% U69,593 Stimulation) 10 Nm (hKOR) | β arrestin 2 Inhibition (% U69,593 Stimulation) 100 Nm (hKOR) | IC50 (hKOR; [5]) | IC50 [1] | IC50 [2] | also measured |
| --- | --- | --- | --- | --- | --- | --- | --- |
| Cc1ccc(S(=O)(=O)N(C)Cc2ccc(C(=O)N(C)CCN(Cc3ccccc3)C(C)C)cc2)cc1 [Compound 1a, N-(2-(Benzyl(isopropyl)amino)ethyl)-N-methyl-4-((N,4-dimethylphenylsulfonamido)methyl)benzamide, reference compound] |  |  |  |  |  |  | IC50 (nM) ± S.E.M. βarr2 (hKOR; [5]): inactive; IC50 (nM) ± S.E.M. ERK [1]: inactive; IC50 (nM) ± S.E.M. [35S]GTPγS [2]: inactive |
| COc1ccc(CN(CCNC(=O)c2ccc3c(c2)CCN(S(=O)(=O)c2ccc(C)cc2)C3)C(C)(C)C)cc1 [Compound 1b, N-(2-(tert-butyl(4-methoxybenzyl)amino)ethyl)-2-tosyl-1,2,3,4-tetrahydroisoquinoline-6-carboxamide] | 0.0 % U69,593 Stimulation | 0.0 % U69,593 Stimulation | 0.8 % U69,593 Stimulation |  |  |  |  |
| Cc1cc(C)c(S(=O)(=O)N2CCc3cc(C(=O)NCCN(Cc4ccccc4)C(C)C)ccc3C2)c(C)c1 [Compound 1c, N-(2-(Benzyl(isopropyl)amino)ethyl)-2-(mesitylsulfonyl)-1,2,3,4-tetrahydroisoquinoline-6-carboxamide] |  |  |  | 930 ± 150 nM | 1120 nM | 113 ± 42 nM |  |
| CCc1ccc(S(=O)(=O)N2CCc3cc(C(=O)NCCN(Cc4ccc(Br)cc4)C(C)C)ccc3C2)cc1 [Compound 1g, N-(2-((4-Bromobenzyl)(isopropyl)amino)ethyl)-2-((4-ethylphenyl)sulfonyl)-1,2,3,4-tetrahydroisoquinoline-6-carboxamide] |  |  |  | 350 ± 68 nM | 314 ± 56 nM | 33 ± 11 nM |  |
| Cc1ccc(S(=O)(=O)N2CCc3cc(C(=O)NCCN(Cc4ccccc4)C(C)(C)C)ccc3C2)cc1 [Compound 1h, N-(2-(Benzyl(tert-butyl)amino)ethyl)-2-tosyl-1,2,3,4-tetrahydroisoquinoline-6-carboxamide] |  |  |  | 104 ± 8.2 nM | 49.1 ± 9.7 nM | 5.28 ± 0.6 nM |  |
| Cc1ccc(S(=O)(=O)N2CCc3cc(C(=O)NCCN(Cc4ccc(Cl)cc4)C(C)(C)C)ccc3C2)cc1 [Compound 1l, N-(2-((4-Chlorobenzyl)(tert-butyl)amino)ethyl)-2-tosyl-1,2,3,4-tetrahydroisoquinoline-6-carboxamide] | 1.5 % U69,593 Stimulation | 29.9 % U69,593 Stimulation | 0.4 % U69,593 Stimulation |  |  |  | effect of pretreatment on U50,488 hypolocomotion (C57BL/6 mice; 10-minute pretreatment, 10 mg/kg i.p., vs vehicle pretreatment followed by U50,488, FIG. 3): prevents the development of U50,488 hypolocomotion; suppression of locomotor (ambulatory) activity compared to vehicle (C57BL/6 mice; C57BL/6 mice, open field, 1 hour, FIG. 2): not to suppress activity compared to vehicle; clearance from brain tissue ([3]; 4h measurement): almost fully cleared; crossing of the blood brain barrier into the CNS ([3]; brain tissue, within 0.5 h): cross the blood brain barrier into the CNS at concentrations similar to norBNI |
| Cc1ccc(S(=O)(=O)N2CCc3cc(C(=O)NCCN(Cc4ccc(Br)cc4)C(C)(C)C)ccc3C2)cc1 [Compound 1m, N-(2-((4-Bromobenzyl)(tert-butyl)amino)ethyl)-2-tosyl-1,2,3,4-tetrahydroisoquinoline-6-carboxamide] |  |  |  | 93 ± 30 nM | 87 ± 17 nM | 2.9 ± 1.2 nM |  |
| Cc1cc(C)c(S(=O)(=O)N2CCc3cc(C(=O)NCCN(Cc4ccc(Br)cc4)C(C)(C)C)ccc3C2)c(C)c1 [Compound 1n, N-(2-((4-Bromobenzyl)(tert-butyl)amino)ethyl)-2-(mesitylsulfonyl)-1,2,3,4-tetrahydroisoquinoline-6-carboxamide] |  |  |  | 710 ± 150 nM | 1340 nM | 106 ± 16 nM |  |
| Oc1ccc2c3c1O[C@H]1c4[nH]c5c(c4C[C@@]4(O)[C@@H](C2)N(CC2CC2)CC[C@]314)C[C@@]1(O)[C@H]2Cc3ccc(O)c4c3[C@@]1(CCN2CC1CC1)[C@H]5O4 [norBNI, nor-binaltorphimine dihydrochloride, reference compound] | 0.9 % U69,593 Stimulation | 0.1 % U69,593 Stimulation | 0.6 % U69,593 Stimulation |  |  |  | time after which still detected in brain tissue [4]: more than 21 days; presence in brain tissue ([3]; after 72 h): still significantly present |
